Measurements as given in patent publication US11242337B2, “Compounds useful for treating gastrointestinal tract disorders” (Ardelyx, Inc., priority 2017, dated 2022).
Structures can show the parent of a compound that is named as a salt.

Assays:
NHE3 [1] = molecular target: T1, NHE3 (Homo sapiens, UniProt P48764); experiment: Cell-based assay of NHE-3 activity (pre-incubation inhibition), human; details: human Preincubation; for pIC50 / IC50: 0-30 μM test compound
T1 construct: expressed in transfected cells
T1 sequence (P48764 26-834): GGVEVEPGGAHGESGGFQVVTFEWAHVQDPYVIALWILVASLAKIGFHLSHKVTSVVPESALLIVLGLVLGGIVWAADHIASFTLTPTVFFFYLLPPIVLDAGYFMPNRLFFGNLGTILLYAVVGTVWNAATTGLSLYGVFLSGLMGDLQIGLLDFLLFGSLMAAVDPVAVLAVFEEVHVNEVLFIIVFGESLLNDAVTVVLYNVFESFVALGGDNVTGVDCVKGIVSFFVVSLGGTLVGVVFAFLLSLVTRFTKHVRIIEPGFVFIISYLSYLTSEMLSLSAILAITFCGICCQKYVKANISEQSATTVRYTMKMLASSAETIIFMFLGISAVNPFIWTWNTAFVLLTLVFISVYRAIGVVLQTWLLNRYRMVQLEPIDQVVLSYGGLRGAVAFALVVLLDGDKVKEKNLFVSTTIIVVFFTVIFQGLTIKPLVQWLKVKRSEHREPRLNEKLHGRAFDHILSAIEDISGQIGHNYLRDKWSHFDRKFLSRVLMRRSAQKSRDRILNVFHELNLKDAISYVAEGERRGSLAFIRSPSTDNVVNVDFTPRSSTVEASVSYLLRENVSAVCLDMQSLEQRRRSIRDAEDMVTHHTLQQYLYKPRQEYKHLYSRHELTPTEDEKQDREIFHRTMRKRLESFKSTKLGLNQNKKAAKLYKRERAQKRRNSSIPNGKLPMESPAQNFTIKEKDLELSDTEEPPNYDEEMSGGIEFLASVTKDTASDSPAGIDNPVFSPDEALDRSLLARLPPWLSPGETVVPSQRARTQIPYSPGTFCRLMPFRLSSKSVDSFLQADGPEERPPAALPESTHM
T1 sequence (Q99653 2-195 partner limits assumed): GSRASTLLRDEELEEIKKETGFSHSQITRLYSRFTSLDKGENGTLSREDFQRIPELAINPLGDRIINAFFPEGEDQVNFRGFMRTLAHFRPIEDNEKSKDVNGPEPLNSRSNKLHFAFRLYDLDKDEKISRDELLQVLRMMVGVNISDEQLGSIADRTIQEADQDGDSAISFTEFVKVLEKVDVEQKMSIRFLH
Summary of the method: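 Activity read as initial rate of BCECF fluorescence ratio change per minute (ex 439/505, em 538 nm) following NH4Cl prepulse acid loading. Compound (0–30 μM) present during 10 min Na+-free acidification at room temperature; cells were PS120 fibroblasts stably co-expressing human NHE3 and NHERF2.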

NHE3 [2] = molecular target: T1, NHE3; experiment: Cell-based assay of NHE-3 activity (persistent inhibition), human; details: human Persistence, 60 min incubation then washout
Summary of the method: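 Persistent inhibition: compound (0-30 μM, 60 min, RT, NaCl-HEPES pH 7.4) removed before assay. Human NHE3/NHERF2 PS120 cells were then BCECF-loaded during NH4Cl pulse (30 min, 37 °C), acidified in Na+-free buffer, and Na+ added 10 min after washout; antiport measured as initial fluorescence-ratio change per minute.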

Row | Compound | % inhibition (NHE3 [1]) | pIC50 (NHE3 [1]) | % inhibition (NHE3 [2]) | pIC50 (NHE3 [2]) | IC50 (NHE3 [1]) [µM] | IC50 (NHE3 [2]) [µM]
1 | Cc1cc(S(=O)(=O)N[C@H]2CCN(CCOCCNC(=O)NCCCCNC(=O)NCCOCCN3CC[C@H](NS(=O)(=O)c4ccc(O[C@H]5c6cc(Cl)cc(C)c6C[C@@H]5N5CCC[C@@H](N(C)C)C5)c(C)c4)C3)C2)ccc1O[C@H]1c2cc(Cl)cc(C)c2C[C@@H]1N1CCC[C@@H](N(C)C)C1 [Example 114, 4-([(1S,2S)-6-Chloro-2-[(R)-3-(dimethylamino)piperidin-1-yl]-4-methyl-2,3-dihydro-1H-inden-1-yl]oxy)-N—[(S)-1-(20-[(S)-3-([4-([(1S,2S)-6-chloro-2-[(R)-3-(dimethylamino)piperidin-1-yl]-4-methyl-2,3-dihydro-1H-inden-1-yl]oxy)-3-methylphenyl]sulfonamido)pyrrolidin-1-yl]-7,14-dioxo-3,18-dioxa-6,8,13,15-tetraazaicosyl)pyrrolidin-3-yl]-3-methylbenzenesulfonamide; tetra(trifluoroacetate)] | C (>70%) | C (NHE3 pIC50 > 7) | C (>70%) | C (NHE3 pIC50 > 7) | – | –
2 | CC(C)[C@@H](COCCOCCNC(=O)NCCCCNC(=O)NCCOCCOC[C@@H](NS(=O)(=O)c1ccc(O[C@H]2c3cc(Cl)cc(Cl)c3C[C@@H]2N2CCC[C@@H](N)C2)cc1)C(C)C)NS(=O)(=O)c1ccc(O[C@H]2c3cc(Cl)cc(Cl)c3C[C@@H]2N2CCC[C@@H](N)C2)cc1 [Example 98, 3-(2-[2-[(2S)-2-[(4-[[(1S,2S)-2-[(3R)-3-Aminopiperidin-1-yl]-4,6-dichloro-2,3-dihydro-1H-inden-1-yl]oxy]benzene)sulfonamido]-3-methylbutoxy]ethoxy]ethyl)-1-(4-[[(2-[2-[(2S)-2-[(4-[[(1S,2S)-2-[(3R)-3-aminopiperidin-1-yl]-4,6-dichloro-2,3-dihydro-1H-inden-1-yl]oxy]benzene)sulfonamido]-3-methylbutoxy]ethoxy]ethyl)carbamoyl]amino]butyl)urea dihydrochloride] | C (>70%) | C (NHE3 pIC50 > 7) | C (>70%) | C (NHE3 pIC50 > 7) | – | –
3 | N#Cc1cc(Cl)cc2c1C[C@H](N1C[C@@H]3C[C@H]1CN3)[C@H]2Oc1ccc(S(=O)(=O)N[C@H]2CCN(CCOCCNC(=O)NCCCCNC(=O)NCCOCCN3CC[C@H](NS(=O)(=O)c4ccc(O[C@H]5c6cc(Cl)cc(C#N)c6C[C@@H]5N5C[C@@H]6C[C@H]5CN6)cc4)C3)C2)cc1 [Example 130, 4-([(1S,2S)-2-[(1S,4S)-2,5-Diazabicyclo[2.2.1]heptan-2-yl]-6-chloro-4-cyano-2,3-dihydro-1H-inden-1-yl]oxy)-N—[(S)-1-(20-[(S)-3-[(4-([(1S,2S)-2-[(1S,4S)-2,5-diazabicyclo[2.2.1]heptan-2-yl]-6-chloro-4-cyano-2,3-dihydro-1H-inden-1-yl]oxy)phenyl]sulfonamido)pyrrolidin-1-yl]-7,14-dioxo-3,18-dioxa-6,8,13,15-tetraazaicosyl)pyrrolidin-3-yl]benzenesulfonamide; bis(trifluoroacetic acid)] | B (40-70%) | C (NHE3 pIC50 > 7) | C (>70%) | – | – | 0.1 to 1

Second part, the compound after the results:

Row | % inhibition (NHE3 [1]) | pIC50 (NHE3 [1]) | % inhibition (NHE3 [2]) | pIC50 (NHE3 [2]) | IC50 (NHE3 [1]) [µM] | IC50 (NHE3 [2]) [µM] | Compound
4 | C (>70%) | C (NHE3 pIC50 > 7) | C (>70%) | C (NHE3 pIC50 > 7) | – | – | Cc1cc(S(=O)(=O)NCCOCCOCCNC(=O)NCCCCNC(=O)NCCOCCOCCNS(=O)(=O)c2ccc(O[C@H]3c4cc(Cl)cc(Cl)c4C[C@@H]3N(C)C)c(C)c2)ccc1O[C@H]1c2cc(Cl)cc(Cl)c2C[C@@H]1N(C)C [Example 22, 3-[2-(2-[2-[(4-[[(1S,2S)-4,6-Dichloro-2-(dimethylamino)-2,3-dihydro-1H-inden-1-yl]oxy]-3-methylbenzene)sulfonamido]ethoxy]ethoxy)ethyl]-1-[4-([[2-(2-[2-[(4-[[(1S,2S)-4,6-dichloro-2-(dimethylamino)-2,3-dihydro-1H-inden-1-yl]oxy]-3-methylbenzene)sulfonamido]ethoxy]ethoxy)ethyl]carbamoyl]amino)butyl]urea dihydrochloride]
5 | B (40-70%) | – | A (NHE3 < 40%) | – | 0.1 to 1 | – | CC(=O)N1CCN([C@H]2Cc3c(Cl)cc(Cl)cc3[C@@H]2Oc2ccc(S(=O)(=O)NCCOCCOCCNC(=O)NCCCCNC(=O)NCCOCCOCCNS(=O)(=O)c3ccc(O[C@H]4c5cc(Cl)cc(Cl)c5C[C@@H]4N4CCN(C(C)=O)CC4)c(C)c3)cc2C)CC1 [Example 75, 3-[2-(2-[2-[(4-[[(1S,2S)-2-(4-Acetylpiperazin-1-yl)-4,6-dichloro-2,3-dihydro-1H-inden-1-yl]oxy]-3-methylbenzene)sulfonamido]ethoxy]ethoxy)ethyl]-1-[4-([[2-(2-[2-[(4-[[(1S,2S)-2-(4-acetylpiperazin-1-yl)-4,6-dichloro-2,3-dihydro-1H-inden-1-yl]oxy]-3-methylbenzene)sulfonamido]ethoxy]ethoxy)ethyl]carbamoyl]amino)butyl]urea; bis(trifluoroacetic acid)]
6 | C (>70%) | – | B (40-70%) | – | < 0.1 | < 0.1 | Cc1cc(S(=O)(=O)N[C@H]2CCN(CCOCCNC(=O)NCCCCNC(=O)NCCOCCN3CC[C@H](NS(=O)(=O)c4ccc(O[C@H]5c6cc(Cl)cc(C#N)c6C[C@@H]5N(C)C)c(C)c4)C3)C2)ccc1O[C@H]1c2cc(Cl)cc(C#N)c2C[C@@H]1N(C)C [Example 54, 3-(2-[2-[(3S)-3-[(4-[[(1S,2S)-6-Chloro-4-cyano-2-(dimethylamino)-2,3-dihydro-1H-inden-1-yl]oxy]-3-methylbenzene)sulfonamido]pyrrolidin-1-yl]ethoxy]ethyl)-1-(4-[[(2-[2-[(3S)-3-[(4-[[(1S,2S)-6-chloro-4-cyano-2-(dimethylamino)-2,3-dihydro-1H-inden-1-yl]oxy]-3-methylbenzene)sulfonamido]pyrrolidin-1-yl]ethoxy]ethyl)carbamoyl]amino]butyl)urea]
7 | C (>70%) | – | C (>70%) | – | – | – | Cc1cc(O[C@H]2c3cc(Cl)cc(Cl)c3C[C@@H]2N2CCC[C@@H](N)C2)c(F)cc1S(=O)(=O)NCCOCCOCCNC(=O)NCCCCNC(=O)NCCOCCOCCNS(=O)(=O)c1cc(F)c(O[C@H]2c3cc(Cl)cc(Cl)c3C[C@@H]2N2CCC[C@@H](N)C2)cc1C [Example 87, 3-[2-(2-[2-[(4-[[(1S,2S)-2-[(3R)-3-Aminopiperidin-1-yl]-4,6-dichloro-2,3-dihydro-1H-inden-1-yl]oxy]-5-fluoro-2-methylbenzene)sulfonamido]ethoxy]ethoxy)ethyl]-1-[4-([[2-(2-[2-[(4-[[(1S,2S)-2-[(3R)-3-aminopiperidin-1-yl]-4,6-dichloro-2,3-dihydro-1H-inden-1-yl]oxy]-5-fluoro-2-methylbenzene)sulfonamido]ethoxy]ethoxy)ethyl]carbamoyl]amino)butyl]urea; bis(trifluoroacetic acid)]
